One assay concerns Glioblastoma U373 cells. As to the kind of experiment: Cell proliferation, 24 h drug exposure. The assay is classed as cell-based, human. The protocol: All metastatic (breast MDA-MB231, MDA-MB468, cervix HeLa, prostate PC3, colorectal HCT116, COLO205, glioblastoma U373), low-metastatic (breast MCF-7) cancer and non-cancer (fibroblast 3T3, cardiomyocytes H9C2) cell lines (American Type Culture Collection, Rockville, MD, USA) used in this study were cultured in Petri dishes in 20 mL of Dulbecco’s Modified Eagle’s Medium (DMEM, Sigma, MO, USA) supplemented with 10% fetal bovine serum (Biowest, Mexico) and 10,000 U penicillin/streptomycin (Sigma-Aldrich, MO, USA). […] For growth and maintenance, cells were incubated in 5% CO2/95% air at 37°C and kept until 80–90% of confluence was reached. Then, cells were harvested, washed by centrifugation and resuspended in Krebs-Ringer buffer (KR, 125 mM NaCl, 5 mM KCl, 25 mM Hepes, 1 mM MgCl2, 1 mM KH2PO4, 1.4 mM CaCl2, pH 7.4) for further use. For experimentation, cancer cells (3–5 x 10^6 cells) were cultured in DMEM (with 25 mM glucose) for 24 h in the absence of drugs. Afterwards, old-medium was replaced with fresh DMEM medium (with 25 mM glucose) in the absence (control, non-treated cells) or in the presence of logarithmic concentrations of Aur and MA for 24 h more, under the same culture conditions described above. Viability of cultured cells was determined by the trypan blue exclusion assay. The protein concentration was determined by the Lowry method.
For cell proliferation in the presence of drugs, cancer cells (20 x 10^3 cells/well) were grown in 96-well plates containing DMEM (Sigma-Aldrich) plus 10% bovine fetal serum for 24 h. […] The effect of these drugs on cell proliferation was determined in 96-well plates by the MTT (3-[4,5-dimethyl-thiazol-2-yl]-2,5-diphenyltetrazolium bromide) assay. The viability of cancer cells was > 95% after treatment with drugs.

Assay [1] has as its system ovarian cancer A2780 cells. The arrangement: method as in PMID 35358852. The conditions noted are these: cited from earlier work.

We go through one compound from PMC11407620, “Repurposing auranofin and meclofenamic acid as energy-metabolism inhibitors and anti-cancer drugs” (PLOS ONE, 2024).

On to `CC(=O)OC[C@H]1O[C@@H]([S-])[C@H](OC(C)=O)[C@@H](OC(C)=O)[C@@H]1OC(C)=O.CCP(CC)CC.[Au+]` [Aur, [1-(thio-κS)-β-D-glucopyranose-2,3,4,6-tetraacetyl] (triethylphosphine)-gold], for which the IC50 with Glioblastoma U373 cells (Glioblastoma U373, 24 h, read-out: IC50 for proliferation cell rate) is 600 ± 100 nM. For the same compound, the “TI ratio (3T3/ cancer cells)” value with Glioblastoma U373 cells (IC50 3T3 / IC50 U373) amounted to 70. Besides, the “TI ratio (H9C2/cancer cells)” value in the assay on Glioblastoma U373 cells (IC50 H9C2 / IC50 U373) was 130. Moreover, in assay [1], the “inhibition of cancer cell total oxygen consumption” value is reported as “around 25%”.
